The values below come from ChEMBL document CHEMBL5252600, “Anti-Aβ42 Aggregative Polyketides from the Antarctic Psychrophilic Fungus Pseudogymnoascus sp. OUCMDZ-3578” (J Nat Prod, 2023).

The target of assay [1] is T1, Amyloid-beta precursor protein (Homo sapiens, UniProt P05067). The assay is described as follows: Inhibition of Amyloid beta (1 to 42) (unknown origin) aggregation incubated for 24 hrs by ThioflavinT-dye based fluorescence analysis.
In assay [2] the target is T1, Amyloid-beta precursor protein. Description: Inhibition of Amyloid beta (1 to 42) (unknown origin) aggregation at 100 uM incubated for 24 hrs by ThioflavinT-dye based fluorescence analysis.
Assay [3] is described as follows: Metal chelating activity assessed as compound-Cu2+ complex formation incubated for 1 hr by UV-vis spectrophotometric analysis.
Assay [4] addresses T1, Amyloid-beta precursor protein. Description: Disaggregation of Fe3+ induced Amyloid beta (1 to 42) (unknown origin) aggregation at 100 uM incubated for 24 hrs by ThioflavinT-dye based fluorescence analysis.
Assay [5] is described as follows: Metal chelating activity assessed as compound-Zn2+ complex formation incubated for 1 hr by UV-vis spectrophotometric analysis.
Assay [6] is described as follows: Metal chelating activity assessed as compound-Fe3+ complex formation incubated for 1 hr by UV-vis spectrophotometric analysis.

As usually defined, the IC50 is the concentration at which inhibition is half-maximal. As a reminder, the inhibition is how much of the control response was suppressed. High values mean a strong effect, low ones a weak effect.

Each structure is given as a SMILES string. Active and inactive are the calls of the source. No cut-off for these calls is given here.

T1 sequence (P05067 whole entry): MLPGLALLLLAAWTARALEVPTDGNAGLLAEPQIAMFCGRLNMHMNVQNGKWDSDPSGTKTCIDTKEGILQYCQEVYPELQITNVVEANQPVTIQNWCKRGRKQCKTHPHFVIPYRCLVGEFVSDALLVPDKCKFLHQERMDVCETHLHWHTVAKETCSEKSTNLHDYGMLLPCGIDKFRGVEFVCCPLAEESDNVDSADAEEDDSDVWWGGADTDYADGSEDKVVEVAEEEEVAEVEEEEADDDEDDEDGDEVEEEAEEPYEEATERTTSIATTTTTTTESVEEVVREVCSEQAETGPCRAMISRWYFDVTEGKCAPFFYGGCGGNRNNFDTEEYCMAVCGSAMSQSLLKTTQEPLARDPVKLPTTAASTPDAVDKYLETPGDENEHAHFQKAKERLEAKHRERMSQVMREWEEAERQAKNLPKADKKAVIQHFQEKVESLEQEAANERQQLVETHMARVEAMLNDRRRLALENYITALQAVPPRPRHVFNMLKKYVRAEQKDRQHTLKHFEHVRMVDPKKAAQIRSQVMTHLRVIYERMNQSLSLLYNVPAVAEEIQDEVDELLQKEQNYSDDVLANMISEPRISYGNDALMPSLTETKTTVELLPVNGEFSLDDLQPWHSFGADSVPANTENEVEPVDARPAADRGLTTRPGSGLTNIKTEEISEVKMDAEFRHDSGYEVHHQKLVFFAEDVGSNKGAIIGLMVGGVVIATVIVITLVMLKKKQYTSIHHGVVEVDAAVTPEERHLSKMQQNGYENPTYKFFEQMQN

The molecule `COC(=O)c1cc(O[C@@H]2O[C@H](CO)[C@@H](O)[C@H](O)[C@H]2O)cc(OC)c1C(=O)c1c(O)cc(C)cc1O` came in with an IC50 in assay [1] of 4.73 µM. Also, the inhibition in assay [2] stood at 85.2%.

Turning to `COC(=O)c1c(O)cc(C)c(Sc2c(O)cc(OC)c(Oc3c(O)cc(C)cc3O)c2O)c1C(=O)c1c(O)cc(C)cc1O`, the outcome in assay [3], in assay [4], in assay [5] and in assay [6] was Active. In assay [1], this molecule registered an IC50 of 0.1 µM. The same molecule registered an inhibition in assay [2] of 85.7%.

Take `COC(=O)c1cc(O)cc(OC)c1C(=O)c1c(O)cc(CO[C@H]2O[C@H](CO)[C@@H](O)[C@H](O)[C@H]2O)cc1O`: the result in assay [3], in assay [4], in assay [5] and in assay [6] was Active. The IC50 in assay [1] worked out at 1.03 µM. Besides, the inhibition in assay [2] was 84.5%.

For the molecule `COc1cc(O)cc(C(=O)O)c1C(=O)c1c(O)cc(CO)cc1O`, the outcome in assay [3], in assay [4], in assay [5] and in assay [6] was Active. In addition, the IC50 in assay [1] was determined as 1.07 µM. The same molecule showed an inhibition in assay [2] of 73.2%.

In the case of `O=C(O[C@@H]1Cc2c(O)cc(O)cc2O[C@@H]1c1cc(O)c(O)c(O)c1)c1cc(O)c(O)c(O)c1` [EPIGALOCATECHIN GALLATE], the IC50 in assay [1] worked out at 0.14 µM.

`COC(=O)c1c(O)cc(C)cc1C(=O)c1cc(O)cc2oc3cc4c(c(O)c3c12)C(=O)c1c(O)cc(C)cc1C4=O`: in assay [1], inhibition was half-maximal at 1.56 µM (IC50). The same molecule displayed an inhibition in assay [2] of 85.5%.

The molecule `COC(=O)c1cc(O[C@@H]2O[C@H](COC(=O)CCC(=O)O)[C@@H](O)[C@H](O)[C@H]2O)cc(OC)c1C(=O)c1c(O)cc(C)cc1O` displayed an IC50 in assay [1] of 3.01 µM. In assay [2], this molecule came in with an inhibition of 64.1%.

As for `Cc1cc(O)c(C(=O)c2c(O)cc3c(c2O)C(=O)c2c(O)cc(C)cc2C3=O)c(C(=O)c2cc(O)c(O)cc2O)c1`, the result in assay [3], in assay [4], in assay [5] and in assay [6] was Active. The molecule further gave an IC50 in assay [1] of 0.18 µM. The same molecule showed an inhibition in assay [2] of 86.3%.
